# Measurements reported in ChEMBL document CHEMBL5260848, “Recent advancements in the development of bioactive pyrazoline derivatives” (Eur J Med Chem, 2020).
# Key:
# [1] = Cytotoxicity against human HPLF cells assessed as reduction in cell viability incubated for 48 hrs by MTT assay; assay type: functional
# [2] = tested on: Ca9-22; experiment: Cytotoxicity against human Ca9-22 cells assessed as reduction in cell viability incubated for 48 hrs by MTT assay; assay type: functional
# [3] = biological target: T1, Carbonic anhydrase 9 (Homo sapiens, UniProt Q16790); experiment: Inhibition of human CA9 preincubated for 15 mins by phenol red dye based stopped flow CO2 hydration assay
# [4] = tested on: HSC-3; experiment: Cytotoxicity against human HSC-3 cells assessed as reduction in cell viability incubated for 48 hrs by MTT assay; assay type: functional
# [5] = biological target: Carbonic anhydrase 12 (Homo sapiens, UniProt O43570); experiment: Inhibition of human CA12 preincubated for 15 mins by phenol red dye based stopped flow CO2 hydration assay
# Carbonic anhydrase 12, sequence (O43570 whole entry): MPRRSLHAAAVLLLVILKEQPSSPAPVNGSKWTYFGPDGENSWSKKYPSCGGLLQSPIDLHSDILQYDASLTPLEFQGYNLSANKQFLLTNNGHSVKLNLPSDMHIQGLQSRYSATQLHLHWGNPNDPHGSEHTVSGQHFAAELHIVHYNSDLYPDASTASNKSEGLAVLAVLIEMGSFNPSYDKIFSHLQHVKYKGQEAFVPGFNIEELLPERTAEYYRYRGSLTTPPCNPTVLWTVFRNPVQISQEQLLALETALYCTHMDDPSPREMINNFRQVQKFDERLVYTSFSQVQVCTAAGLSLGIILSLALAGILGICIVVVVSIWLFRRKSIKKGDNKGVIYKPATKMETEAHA
# [6] = tested on: HSC-2; experiment: Cytotoxicity against human HSC-2 cells assessed as reduction in cell viability incubated for 48 hrs by MTT assay; assay type: functional
# [7] = Cytotoxicity against human HGF cells assessed as reduction in cell viability incubated for 48 hrs by MTT assay; assay type: functional
# [8] = Cytotoxicity against human HPC cells assessed as reduction in cell viability incubated for 48 hrs by MTT assay; assay type: functional
# [9] = tested on: Candida albicans; experiment: Antifungal activity against Candida albicans by agar dilution method; assay type: functional
# [10] = tested on: Mus musculus; experiment: Antidiabetic activity against albino mouse assessed as reduction in blood glucose level at 0.2 mmol/Kg relative to control; assay type: functional; parameters: scale not given: the % may be the effect or the level left
# [11] = tested on: MCF7; experiment: Cytotoxicity against human MCF7 cells; assay type: functional, cell-based
# [12] = biological target: T2, Carbonic anhydrase 1 (Homo sapiens, UniProt P00915); experiment: Inhibition of human recombinant CA1
# T2 sequence (P00915 whole entry): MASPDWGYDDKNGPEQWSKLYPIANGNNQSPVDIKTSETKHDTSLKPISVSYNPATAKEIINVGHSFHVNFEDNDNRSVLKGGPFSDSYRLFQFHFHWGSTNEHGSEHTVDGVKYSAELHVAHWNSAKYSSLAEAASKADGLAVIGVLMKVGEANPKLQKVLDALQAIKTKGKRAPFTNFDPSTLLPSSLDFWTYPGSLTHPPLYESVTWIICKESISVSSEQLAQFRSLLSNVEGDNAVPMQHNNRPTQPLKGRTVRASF
# [13] = biological target: T3, Carbonic anhydrase 2 (Homo sapiens, UniProt P00918); experiment: Inhibition of human recombinant CA2
# [14] = biological target: Carbonic anhydrase 4 (Homo sapiens, UniProt P22748); experiment: Inhibition of human recombinant CA4
# Carbonic anhydrase 4, sequence (P22748 whole entry): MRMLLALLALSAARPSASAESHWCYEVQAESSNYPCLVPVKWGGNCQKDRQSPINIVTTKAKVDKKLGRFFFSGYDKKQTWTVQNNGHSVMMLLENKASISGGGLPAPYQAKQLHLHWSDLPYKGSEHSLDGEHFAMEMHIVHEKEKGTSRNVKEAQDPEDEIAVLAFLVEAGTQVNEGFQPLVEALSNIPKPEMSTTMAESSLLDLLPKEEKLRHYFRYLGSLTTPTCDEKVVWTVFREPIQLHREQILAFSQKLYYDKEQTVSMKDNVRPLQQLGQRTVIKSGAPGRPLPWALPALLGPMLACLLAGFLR
# [15] = biological target: T1, Carbonic anhydrase 9
# [16] = biological target: Acetylcholinesterase (Homo sapiens, UniProt P22303)
# Acetylcholinesterase, sequence (P22303 whole entry): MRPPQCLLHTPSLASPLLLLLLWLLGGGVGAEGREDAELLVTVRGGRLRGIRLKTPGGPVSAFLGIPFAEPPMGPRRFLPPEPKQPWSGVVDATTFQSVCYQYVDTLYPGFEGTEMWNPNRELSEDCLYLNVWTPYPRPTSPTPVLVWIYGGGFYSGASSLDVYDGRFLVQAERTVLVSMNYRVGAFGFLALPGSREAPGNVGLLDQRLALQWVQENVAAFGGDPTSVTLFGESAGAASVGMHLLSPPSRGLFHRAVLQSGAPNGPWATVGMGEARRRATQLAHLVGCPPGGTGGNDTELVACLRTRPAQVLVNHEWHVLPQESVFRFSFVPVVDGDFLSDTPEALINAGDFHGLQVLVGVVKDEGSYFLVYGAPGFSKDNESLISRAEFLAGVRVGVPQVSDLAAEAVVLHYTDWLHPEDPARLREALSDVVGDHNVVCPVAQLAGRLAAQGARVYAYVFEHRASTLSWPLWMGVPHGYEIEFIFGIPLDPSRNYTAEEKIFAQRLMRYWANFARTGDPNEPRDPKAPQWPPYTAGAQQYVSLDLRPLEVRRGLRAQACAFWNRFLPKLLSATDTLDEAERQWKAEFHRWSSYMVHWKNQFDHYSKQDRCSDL
# [17] = tested on: Staphylococcus aureus; experiment: microbe, parasite or virus in culture
# [18] = biological target: T3, Carbonic anhydrase 2
# [19] = biological target: T2, Carbonic anhydrase 1
# [20] = biological target: T1, Carbonic anhydrase 9; experiment: Inhibition of human CA9
# [21] = Antioxidant activity assessed as DPPH radical scavenging activity; assay type: functional
# [22] = tested on: Cryptococcus neoformans; experiment: Antifungal activity against Cryptococcus neoformans assessed as reduction in microbial growth; assay type: functional
# [23] = tested on: Candida albicans; experiment: Antifungal activity against Candida albicans assessed as reduction in microbial growth; assay type: functional
# [24] = Cytotoxicity against human Panel NCI-58 (58 carcinoma cell lines) cells; assay type: functional
smiles,measurement,setting,value
COc1ccc(C2CC(c3ccc(O)cc3)=NN2c2ccc(S(N)(=O)=O)cc2)cc1 (centres undefined),CC50,[1],39.3 µM
same,CC50,[2],39.3 µM
same,Ki,[3],0.0535 µM
same,CC50,[4],39.3 µM
same,Ki,[5],0.0062 µM
same,CC50,[6],39.3 µM
same,CC50,[7],39.3 µM
same,CC50,[8],39.3 µM
Cc1ccc2cc(C3CC(c4cc(Br)ccc4O)=NN3)c3nnnn3c2c1 (centres undefined),MIC,[9],25 mg/L
Cc1ccc(C2=NN(c3ccc(S(=O)(=O)NC(=O)Nc4ccccc4)cc3)C(c3ccc(F)cc3)C2)cc1 (centres undefined),Activity,[10],16%
NS(=O)(=O)c1ccc(N2N=C(c3ccc(O)cc3)CC2c2ccc(Cl)cc2)cc1 (centres undefined),CC50,[1],39.3 µM
same,CC50,[2],39.3 µM
same,Ki,[3],0.0535 µM
same,CC50,[4],39.3 µM
same,Ki,[5],0.0062 µM
same,CC50,[6],39.3 µM
same,CC50,[7],39.3 µM
same,CC50,[8],39.3 µM
CN1N=C2C(C[C@H]3[C@@H]4CCc5cc(O)ccc5[C@H]4CC[C@]23C)C1c1ccc(Br)cc1 (some centres undefined),IC50,[11],0.043 µM
CC(=O)N1N=C(c2ccc(F)cc2)CC1c1cccc(OS(N)(=O)=O)c1 (centres undefined),Ki,[12],2.46 µM
same,Ki,[13],0.0004 µM
same,Ki,[14],0.0177 µM
same,Ki,[15],0.0148 µM
NS(=O)(=O)c1ccc(N2N=C(c3ccc(O)cc3)CC2c2ccc(Br)cc2)cc1 (centres undefined),CC50,[1],39.3 µM
same,CC50,[2],39.3 µM
same,Ki,[3],0.0535 µM
same,CC50,[4],39.3 µM
same,Ki,[5],0.0062 µM
same,CC50,[6],39.3 µM
same,CC50,[7],39.3 µM
same,CC50,[8],39.3 µM
COc1ccc(C2CC(c3ccc(F)cc3)=NN2c2ccc(S(N)(=O)=O)cc2)cc1OC (centres undefined),Ki,[16],0.0377 µM
NS(=O)(=O)c1ccc(N2N=C(c3ccc(O)cc3)CC2c2ccc([N+](=O)[O-])cc2)cc1 (centres undefined),CC50,[1],39.3 µM
same,Ki,[3],0.0535 µM
same,CC50,[4],39.3 µM
same,Ki,[5],0.0062 µM
same,CC50,[6],39.3 µM
same,CC50,[7],39.3 µM
same,CC50,[8],39.3 µM
COC(=O)C1N=NN(CC(=O)N2N=C(c3nnn(Cc4ccccc4)c3C)CC2c2ccc(OC)cc2)C1C(=O)OC (centres undefined),MIC,[17],3.9 mg/L
NS(=O)(=O)c1ccc(N2N=C(c3ccc(O)cc3)CC2c2ccccc2)cc1 (centres undefined),CC50,[1],39.3 µM
same,CC50,[2],39.3 µM
same,Ki,[3],0.0535 µM
same,CC50,[4],39.3 µM
same,Ki,[18],0.412 µM
same,Ki,[5],0.0062 µM
same,CC50,[6],39.3 µM
same,CC50,[7],39.3 µM
same,Ki,[19],0.317 µM
same,CC50,[8],39.3 µM
COc1ccc(C2=NN(C(=O)c3ccc(S(N)(=O)=O)cc3)C(c3ccc(OC)c(OC)c3)C2)c(OC)c1 (centres undefined),Ki,[20],0.0055 µM
same,Ki,[19],2.67 µM
COc1ccc(C2CC(c3ccccc3)=NN2c2ccc(S(N)(=O)=O)cc2)c(OC)c1 (centres undefined),Ki,[16],0.0377 µM
COC(=O)C1N=NN(CC(=O)N2N=C(c3ccccc3)CC2c2ccc(OC)cc2)C1C(=O)OC (centres undefined),MIC,[17],3.9 mg/L
C[C@]12CC[C@@H]3c4ccc(O)cc4CC[C@H]3[C@@H]1CC1C2=NN(c2ccccc2)C1c1cccs1 (some centres undefined),IC50,[11],0.043 µM
CC(=O)N1N=C(c2ccc(OS(N)(=O)=O)cc2)CC1c1ccc([N+](=O)[O-])cc1 (centres undefined),Ki,[12],2.46 µM
same,Ki,[13],0.0004 µM
same,Ki,[14],0.0177 µM
same,Ki,[15],0.0148 µM
COc1ccc2c(c1)cc(/C=C/C(=O)c1cc(Br)ccc1O)c1nnnn12,IC50,[21],25.4 mg/L
COc1ccc(C2=NN(C(=O)c3ccc(S(N)(=O)=O)cc3)C(c3ccc(OC)cc3)C2)cc1 (centres undefined),Ki,[20],0.0055 µM
same,Ki,[18],0.0317 µM
same,Ki,[19],0.0878 µM
COc1ccc(C2=NN(C(C)=O)C(c3ccc(OS(N)(=O)=O)cc3)C2)cc1 (centres undefined),Ki,[12],2.46 µM
same,Ki,[13],0.0004 µM
same,Ki,[14],0.0177 µM
same,Ki,[15],0.0148 µM
COc1cc(C2CC(c3cccc(Nc4ccnc5cc(Cl)ccc45)c3)=NN2c2ccc(Cl)cc2)cc(OC)c1OC (centres undefined),MIC50,[22],3.9 mg/L
same,MIC50,[23],3.9 mg/L
same,GI50,[24],< 1 µM
CC(=O)N1N=C(c2ccc(OS(N)(=O)=O)cc2)CC1c1ccccc1 (centres undefined),Ki,[12],2.46 µM
same,Ki,[13],0.0004 µM
same,Ki,[14],0.0177 µM
same,Ki,[15],0.0148 µM
NS(=O)(=O)c1ccc(N2N=C(c3ccc(O)cc3)CC2c2ccc(Cl)cc2Cl)cc1 (centres undefined),CC50,[1],39.3 µM
same,CC50,[2],39.3 µM
same,Ki,[3],0.0535 µM
same,CC50,[4],39.3 µM
same,Ki,[5],0.0062 µM
same,CC50,[6],39.3 µM
same,CC50,[7],39.3 µM
same,CC50,[8],39.3 µM
COc1ccc2c(c1)cc(C1CC(c3cc(Br)ccc3O)=NO1)c1nnnn12 (centres undefined),IC50,[21],26.5 mg/L
CCOC(=O)C1N=NN(CC(=O)N2N=C(c3nnn(Cc4ccccc4)c3C)CC2c2cccs2)C1C(=O)OCC (centres undefined),MIC,[17],3.9 mg/L
COC(=O)C1N=NN(CC(=O)N2N=C(c3nnn(Cc4ccccc4)c3C)CC2c2cccs2)C1C(=O)OC (centres undefined),MIC,[17],3.9 mg/L
CC(=O)N1N=C(c2ccc(OS(N)(=O)=O)cc2)CC1c1cc(Cl)ccc1Cl (centres undefined),Ki,[12],2.46 µM
same,Ki,[13],0.0004 µM
same,Ki,[14],0.0177 µM
same,Ki,[15],0.0148 µM
